{"source": "the supplement of paper PMC10307832", "assay_in_all_cases": "relative viability (nuclei count vs DMSO), 5 days (fraction); higher = more cells survive", "key": {"VE-821 + OSI-027": {"compound": "CS(=O)(=O)c1ccc(-c2cnc(N)c(C(=O)Nc3ccccc3)n2)cc1 [VE-821] + COc1cccc2cc(-c3nc([C@H]4CC[C@H](C(=O)O)CC4)n4ncnc(N)c34)[nH]c12 [OSI-027] (partner 0.5 µM)", "method_in_brief": "(§1)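 Relative viability is defined as nuclei in treated wells over nuclei in vehicle wells. Duplicate plates were run and medians reported. Lung cancer cell lines in 1536-well plates were dosed by pin tool one day after seeding, with one drug or with a fixed anchor-drug dose plus five library-drug doses (not always all listed) in √10 steps, and nuclei were counted after 5 days.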"}, "Vismodegib + Linsitinib": {"compound": "CS(=O)(=O)c1ccc(C(=O)Nc2ccc(Cl)c(-c3ccccn3)c2)c(Cl)c1 [Vismodegib] + C[C@]1(O)C[C@@H](c2nc(-c3ccc4ccc(-c5ccccc5)nc4c3)c3c(N)nccn32)C1 [Linsitinib] (partner 1 µM)", "method_in_brief": "as §1"}, "VE-821 + Dasatinib": {"compound": "CS(=O)(=O)c1ccc(-c2cnc(N)c(C(=O)Nc3ccccc3)n2)cc1 [VE-821] + Cc1nc(Nc2ncc(C(=O)Nc3c(C)cccc3Cl)s2)cc(N2CCN(CCO)CC2)n1 [Dasatinib] (partner 0.075 µM)", "method_in_brief": "as §1"}, "VE-821 + Trametinib": {"compound": "CS(=O)(=O)c1ccc(-c2cnc(N)c(C(=O)Nc3ccccc3)n2)cc1 [VE-821] + CC(=O)Nc1cccc(-n2c(=O)n(C3CC3)c(=O)c3c(Nc4ccc(I)cc4F)n(C)c(=O)c(C)c32)c1 [Trametinib] (partner 0.02 µM)", "method_in_brief": "as §1"}}}
{"cell line": "UMC-11", "values": [{"measurement": "relative viability", "setting": "VE-821 + OSI-027; first compound 0.08 µM", "value": 0.507}, {"measurement": "relative viability", "setting": "VE-821 + OSI-027; first compound 0.253 µM", "value": 0.436}, {"measurement": "relative viability", "setting": "VE-821 + OSI-027; first compound 0.8 µM", "value": 0.508}, {"measurement": "relative viability", "setting": "VE-821 + OSI-027; first compound 2.53 µM", "value": 0.477}, {"measurement": "relative viability", "setting": "VE-821 + OSI-027; first compound 8 µM", "value": 0.325}, {"measurement": "relative viability", "setting": "Vismodegib + Linsitinib; first compound 0.08 µM", "value": 0.931}, {"measurement": "relative viability", "setting": "Vismodegib + Linsitinib; first compound 0.253 µM", "value": 0.996}, {"measurement": "relative viability", "setting": "Vismodegib + Linsitinib; first compound 0.8 µM", "value": 1.06}, {"measurement": "relative viability", "setting": "Vismodegib + Linsitinib; first compound 2.53 µM", "value": 0.927}, {"measurement": "relative viability", "setting": "Vismodegib + Linsitinib; first compound 8 µM", "value": 1}, {"measurement": "relative viability", "setting": "VE-821 + Dasatinib; first compound 0.08 µM", "value": 0.553}, {"measurement": "relative viability", "setting": "VE-821 + Dasatinib; first compound 0.253 µM", "value": 0.44}, {"measurement": "relative viability", "setting": "VE-821 + Dasatinib; first compound 0.8 µM", "value": 0.516}, {"measurement": "relative viability", "setting": "VE-821 + Dasatinib; first compound 2.53 µM", "value": 0.524}, {"measurement": "relative viability", "setting": "VE-821 + Dasatinib; first compound 8 µM", "value": 0.374}, {"measurement": "relative viability", "setting": "VE-821 + Trametinib; first compound 0.08 µM", "value": 0.738}, {"measurement": "relative viability", "setting": "VE-821 + Trametinib; first compound 0.253 µM", "value": 0.596}, {"measurement": "relative viability", "setting": "VE-821 + Trametinib; first compound 0.8 µM", "value": 0.516}, {"measurement": "relative viability", "setting": "VE-821 + Trametinib; first compound 2.53 µM", "value": 0.798}, {"measurement": "relative viability", "setting": "VE-821 + Trametinib; first compound 8 µM", "value": 0.38}]}
